Test results: US4066753A, “Neomycin and paromomycin derivatives” (Canadian Patents and Development Limited, priority 1976, dated 1978)
In brackets after ≈: the same amount, converted by molar mass. Like-named read-outs stand apart in the source and are kept apart here.

Tests used:
Assay type in all cases: cell-based
[1] = tested on: S. pyogenes S B352; assay: IN VITRO antibacterial activity, S. pyogenes S B352; details: Streptococcus pyogenes, SB352, 24 h
Method: (§1) In the Tables above MIC stands for minimum inhibitory concentration and
(§2) the results were obtained by providing halving dilutions of the test
(§3) compound in nutrient broth (concentrations usually range from 1/10,000 to
(§4) 1/320,000). These solutions are inoculated with the test organism,
(§5) incubated for 24 hours at 37° C and then examined for the presence
(§6) of growth. A test compound found to have a minimum inhibitory
(§7) concentration (MIC) of 1/160,000 is generally considered as a lead.

[2] = tested on: S. pyogenes R 353; assay: IN VITRO antibacterial activity, S. pyogenes R 353; details: Streptococcus pyogenes, R353, 24 h
Method: as §1, §2, §3, §4, §5, §6, §7

[3] = tested on: S. fecalis 353; assay: IN VITRO antibacterial activity, S. fecalis 353; details: 24 h
Method: as §1, §2, §3, §4, §5, §6, §7

[4] = tested on: E. Coli 198 (ATCC 1/229); assay: IN VITRO antibacterial activity, E. Coli 198 (ATCC 1/229); details: Escherichia coli, ATCC1, 24 h
Method: as §1, §2, §3, §4, §5, §6, §7

[5] = tested on: A. aerogenes 357; assay: IN VITRO antibacterial activity, A. aerogenes 357; details: Klebsiella aerogenes, 357, 24 h
Method: as §1, §2, §3, §4, §5, §6, §7

[6] = tested on: S. pullorum 358; assay: IN VITRO antibacterial activity, S. pullorum 358; details: Salmonella enterica, PULLORUM, 24 h
Method: as §1, §2, §3, §4, §5, §6, §7

[7] = tested on: P. aeruginosa 359; assay: IN VITRO antibacterial activity, P. aeruginosa 359; details: Pseudomonas aeruginosa, 359, 24 h
Method: as §1, §2, §3, §4, §5, §6, §7

[8] = tested on: Pr. mirabilis 360; assay: IN VITRO antibacterial activity, Pr. mirabilis 360; details: Proteus mirabilis, 360, 24 h
Method: as §1, §2, §3, §4, §5, §6, §7

[9] = tested on: Pr. vulgaris 316; assay: IN VITRO antibacterial activity, Pr. vulgaris 316; details: Proteus vulgaris, 316, 24 h
Method: as §1, §2, §3, §4, §5, §6, §7

[10] = tested on: Kl. pneumoniae 855 (ATCC 10081); assay: IN VITRO antibacterial activity, Kl. pneumoniae 855 (ATCC 10081); details: Klebsiella pneumoniae, ATCC10081, nutrient broth, 24 hours at 37° C
Method: as §1, §2, §3, §4, §5, §6, §7

[11] = tested on: S. marcesceus 854 (ATCC → 103); assay: IN VITRO antibacterial activity, S. marcesceus 854 (ATCC → 103); details: 24 h
Method: as §1, §2, §3, §4, §5, §6, §7

[12] = tested on: P. aeruginosa 87442; assay: IN VITRO antibacterial activity against resistant organisms, P. aeruginosa 87442; details: resistant organism P. aeruginosa 87442, nutrient broth, 24 hours at 37° C
Method: as §1, §2, §3, §4, §5, §6, §7

[13] = tested on: P. aeruginosa 377; assay: IN VITRO antibacterial activity against resistant organisms, P. aeruginosa 377; details: resistant organism P. aeruginosa 377, nutrient broth, 24 hours at 37° C
Method: as §1, §2, §3, §4, §5, §6, §7

[14] = tested on: E. coli B989; assay: IN VITRO antibacterial activity against resistant organisms, E. coli B989; details: resistant organism E. coli B989, nutrient broth, 24 hours at 37° C
Method: as §1, §2, §3, §4, §5, §6, §7

[15] = tested on: E. coli B1002; assay: IN VITRO antibacterial activity against resistant organisms, E. coli B1002; details: resistant organism E. coli B1002, nutrient broth, 24 hours at 37° C
Method: as §1, §2, §3, §4, §5, §6, §7

[16] = tested on: S. pyogenes S; assay: IN VITRO antibacterial activity, S. pyogenes S; details: Streptococcus pyogenes, 24 h
Method: as §1, §2, §3, §4, §5, §6, §7

[17] = tested on: S. pyogenes R; assay: IN VITRO antibacterial activity, S. pyogenes R; details: Streptococcus pyogenes, 24 h
Method: as §1, §2, §3, §4, §5, §6, §7

[18] = tested on: S. fecalis; assay: IN VITRO antibacterial activity, S. fecalis; details: 24 h
Method: as §1, §2, §3, §4, §5, §6, §7

[19] = tested on: E. coli 198; assay: IN VITRO antibacterial activity, E. coli 198; details: Escherichia coli, 198, 24 h
Method: as §1, §2, §3, §4, §5, §6, §7

[20] = tested on: A. aerogenes; assay: IN VITRO antibacterial activity, A. aerogenes; details: Klebsiella aerogenes, 24 h
Method: as §1, §2, §3, §4, §5, §6, §7

[21] = tested on: S. pullorm; assay: IN VITRO antibacterial activity, S. pullorm; details: 24 h
Method: as §1, §2, §3, §4, §5, §6, §7

[22] = tested on: P. aeruginosa; assay: IN VITRO antibacterial activity, P. aeruginosa; details: Pseudomonas aeruginosa, 24 h
Method: as §1, §2, §3, §4, §5, §6, §7

[23] = tested on: P. mirabilis; assay: IN VITRO antibacterial activity, P. mirabilis; details: Proteus mirabilis, 24 h
Method: as §1, §2, §3, §4, §5, §6, §7

[24] = tested on: K. pneumoniae; assay: IN VITRO antibacterial activity, K. pneumoniae; details: Klebsiella pneumoniae, 24 h
Method: as §1, §2, §3, §4, §5, §6, §7

[25] = tested on: S. marcesceus; assay: IN VITRO antibacterial activity, S. marcesceus; details: 24 h
Method: as §1, §2, §3, §4, §5, §6, §7

[26] = tested on: E. coli B996; assay: IN VITRO antibacterial activity, E. coli B996 (resistant to Kanamycin and paromomycin); details: Escherichia coli, nutrient broth, 24 hours at 37° C
Method: as §1, §2, §3, §4, §5, §6, §7

[27] = Pseudomonas aeruginosa, read-out: MIC
[28] = Escherichia coli, read-out: MIC

`NC[C@@H]1O[C@H](O[C@H]2[C@@H](O)[C@H](O[C@@H]3[C@@H](O)[C@H](N)C[C@H](N)[C@H]3O[C@H]3O[C@H](CN)[C@@H](O)[C@H](O)[C@H]3N)O[C@@H]2CO)[C@H](N)[C@@H](O)[C@@H]1O` [Neomycin B, neomycin B] was tested, and the MIC [1] was less than 0.2 µg/mL, the MIC [2] was less than 0.2 µg/mL and the MIC [3] was 0.8 µg/mL (≈ 1.3 µM). It also gave an MIC [4] of 0.8 µg/mL (≈ 1.3 µM), an MIC [5] of less than 0.2 µg/mL and an MIC [6] of less than 0.2 µg/mL. For the same molecule, the MIC [7] was 0.8 µg/mL (≈ 1.3 µM), the MIC [8] was 0.4 µg/mL (≈ 0.651 µM) and the MIC [9] was less than 0.2 µg/mL. For the same molecule, the MIC [10] was less than 0.2 µg/mL and the MIC [11] was less than 0.2 µg/mL.
`NC[C@@H]1O[C@H](O[C@H]2[C@@H](O)[C@H](O[C@@H]3[C@@H](O)[C@H](N)C[C@H](N)[C@H]3O[C@H]3O[C@H](CN)[C@@H](O)[C@H](O)[C@H]3N)O[C@@H]2CO)[C@H](N)[C@@H](O)[C@@H]1O` [Neomycin] showed an MIC [12, 27] of less than 0.2 µg/mL, an MIC [13, 27] of 0.4 µg/mL (≈ 0.651 µM) and an MIC [14, 28] of 1.6 µg/mL (≈ 2.6 µM). It also gave an MIC [15, 28] of 50 µg/mL (≈ 81.3 µM).
For `NC[C@@H]1O[C@H](O[C@H]2[C@@H](O)[C@H](O[C@@H]3[C@@H](O)[C@H](N)C[C@H](N)[C@H]3O[C@H]3O[C@H](CO)[C@@H](O)[C@H](O)[C@H]3N)O[C@@H]2CO)[C@H](N)[C@@H](O)[C@@H]1O` [Paromomycin], the MIC [16] was less than 0.2 µg/mL, the MIC [17] was less than 0.2 µg/mL and the MIC [18] was 1.6 µg/mL (≈ 2.6 µM). The MIC [19] was 0.4 µg/mL (≈ 0.65 µM), the MIC [20] was greater than 0.2 µg/mL and the MIC [21] was greater than 0.2 µg/mL. The MIC [22] was 0.8 µg/mL (≈ 1.3 µM), the MIC [23] was greater than 0.2 µg/mL and the MIC [24] was greater than 0.2 µg/mL. It also gave an MIC [25] of 0.4 µg/mL (≈ 0.65 µM) and an MIC [26] greater than 100 µg/mL.
In the case of Gentamycin, the MIC [12] is reported as less than 0.2 µg/mL, the MIC [13] is reported as less than 0.2 µg/mL and the MIC [14] is reported as less than 0.2 µg/mL. It also gave an MIC [15] of less than 0.2 µg/mL.
